Data as given in PMC12198282, “Application of a high-density microelectrode array assay using a 3D human iPSC-derived brain microphysiological system model for in vitro neurotoxicity screening of environmental compounds” (Archives of Toxicology, 2025).
Where two headings read alike, the source gives them in different places.

Test system: human iPSC-derived 3D BrainSpheres
Assay: BrainSphere MEA assay (HD-MEA, 13-day exposure, concentration-response); as to hitc Mean.Spheroid.Burst.Duration: key: 1 (active); 0 (inactive); as to hitc Mean.Spheroid.Burst.ISI: key: 1 (active); 0 (inactive); as to hitc Mean.Spheroid.Burst.Peak.Firing.Rate: key: 1 (active); 0 (inactive); as to hitc Mean.Spheroid.Firing.Rate: key: 1 (active); 0 (inactive); as to hitc Mean.Spheroid.IBI: key: 1 (active); 0 (inactive); as to hitc Mean.Spheroid.Nonburst.ISI: key: 1 (active); 0 (inactive); as to hitc Mean.Spheroid.Spikes.per.Burst.per.Electrode: key: 1 (active); 0 (inactive); as to hitc Mean.Spheroid.Spikes.per.Burst: key: 1 (active); 0 (inactive); as to hitc Spheroid.Burst.Frequency: key: 1 (active); 0 (inactive); as to hitc Spheroid.Spike.Amplitude.90th.Percentile: key: 1 (active); 0 (inactive)
Assay type: cell-based
Settings: for EC (benchmark response 1.349 SD): 312 h
Experimental: A volume of 1 ml of Tergazyme (1% solution in deionized water) was added to each well of the MaxTwo 6-Well Plate (MaxWell Biosystems) and incubated overnight under constant gyratory shaking (88 RPM) at 37 °C and 5% CO2. The next day, Tergazyme solution was removed, and plates were washed with distilled water and ethanol. After remaining ethanol was evaporated, wells were washed with PBS. Then, 200 µl of Poly-D-Lysine (Gibco, A38904 - 01) was added on top of the electrodes and incubated at 37 °C and 5% CO2 for 3 h (humidified). Poly-D-Lysine was then removed, and wells were coated with 100 µl of 0.1 mg/ml laminin coating solution (Sigma-Aldrich, L2020 - 1 mg) and incubated for 2 h at 37 ℃ and 5% CO2 (humidified). The laminin was removed after incubation. Using a 1 ml micropipette, 1 ml of medium containing BrainSpheres (7 weeks differentiated), approximately 25 BrainSpheres per ml, was plated on top of the HD-MEA chip (Fig. 1A). Afterwards, the plate was placed in an incubator at 37 °C and 5% CO2 and moved in circles to accumulate the BrainSpheres on top of the electrode area (Fig. 1A). The plate was kept in an incubator (humidified) for 2 days to allow attachment of the BrainSpheres with no gyratory shaking of the plates.
The MaxTwo high-density microelectrode array system (MaxWell Biosystems AG, Zurich, Switzerland) was used to measure neural activity with MaxTwo 6-well plates, where every well includes an integrated chip with 26,400 platinum electrodes arranged in an area of 3.85 × 2.10 mm^2 ([…]) (Muller et al. [2015]). The data were recorded and analyzed with the MaxLab Live Software (version 22.2.22). First, the MaxLab live ActivityScan Assay was used to identify the activity and positioning of the BrainSpheres on the array by scanning all the 26,400 electrodes in 29 configurations in a well (Assay Parameters: Configuration = Full; Recording time per configuration = 60 s (s)). The settings gain = 512, high-pass-filter (HPF): ~ 1 Hz and spike threshold = 5 X root-mean square (RMS) noise were used for all HD-MEA recordings. Circular regions of interest (ROI) were manually selected in the Activity Map where neuronal activity was apparent by an increased activity (Fig. 2). Over the course of the 13-day experiment, the same selected regions and electrodes were measured using the MaxLab Live Network Assay (600 s recording time).
A custom analysis framework was used to extract the MaxLab Live neuronal metrics for the individual BrainSpheres. For this, electrodes comprising a single ROI (i.e., individual BrainSphere; Fig. 2D) were grouped using distance-based clustering (fcluster method of Scipy library, Python 3.7) and neural metrics were calculated for the clustered electrodes for every ROI separately. Figure 2E presents a raster plot illustrating the activity associated with individual Regions of Interest (ROIs). […] Ten MaxLab Live neural metrics (endpoints) were evaluated from the MaxLab live ActivityScan and Network Assay in this study. See Table 3 for the endpoint definitions, tuned parameters, and activity type (general versus network connectivity).
The BrainSphere MEA assay measured changes in neural activity during a 13-day chemical exposure. The first recording day of the concentration–response screening protocol (day of exposure (DOE) 0) occurred after 7 weeks of BrainSphere differentiation, 48 h after plating on HD-MEA plates (Fig. 1B). The study included at least three biological replicates (one well per plate) from separate experiments (e.g., three different plates on three different days) and each well included multiple BrainSpheres which were considered technical replicates.

[1] = AUC over 13-day exposure, tcplfit2
[2] = Homo sapiens, read-out: BMD Mean.Spheroid.Burst.ISI
[3] = Homo sapiens, read-out: BMD Mean.Spheroid.Nonburst.ISI
[4] = tcplfit2 BMD at benchmark response (1.349*SD of baseline controls)
[5] = tcplfit2 output ACC, activity cutoff in Supplemental Table 1

## C/C(=C/C=C/[C@@H](C)C(=O)O)[C@H]1CN[C@H](C(=O)O)[C@H]1CC(=O)O [Domoic acid]
5th percentile of AC50 values by chemical, above 0.5 = more potent in the rNFA
  Difference of minimum potency between BrainSphere MEA assay and rNFA: more than 0.5 log10 µM
[1]
  hitc Mean.Spheroid.Burst.Duration: 1
  hitc Mean.Spheroid.Burst.ISI: 1
  hitc Mean.Spheroid.Burst.Peak.Firing.Rate: 1
  hitc Mean.Spheroid.Firing.Rate: 1
  hitc Mean.Spheroid.IBI: 1
  hitc Mean.Spheroid.Nonburst.ISI: 1
  hitc Mean.Spheroid.Spikes.per.Burst: 1
  hitc Mean.Spheroid.Spikes.per.Burst.per.Electrode: 1
  hitc Spheroid.Burst.Frequency: 1
  hitc Spheroid.Spike.Amplitude.90th.Percentile: 0
[2]
  EC (benchmark response 1.349 SD): 2.6 µM
[3]
  EC (benchmark response 1.349 SD): 0.99 µM
Homo sapiens, read-out: Mean potency
  EC50: 3320 nM
Homo sapiens, read-out: Minimum potency
  EC50: 1300 nM
Homo sapiens, read-out: ac50 Mean.Spheroid.Burst.Duration, concentration at 50% maximal activity, Supplement 3 prints it also for curves with hit call 0
  AC50: 3600 nM
Homo sapiens, read-out: ac50 Mean.Spheroid.Burst.ISI, concentration at 50% maximal activity, Supplement 3 prints it also for curves with hit call 0
  AC50: 4400 nM
Homo sapiens, read-out: ac50 Mean.Spheroid.Burst.Peak.Firing.Rate, concentration at 50% maximal activity, Supplement 3 prints it also for curves with hit call 0
  AC50: 3100 nM
Homo sapiens, read-out: ac50 Mean.Spheroid.Firing.Rate, concentration at 50% maximal activity, Supplement 3 prints it also for curves with hit call 0
  AC50: 5400 nM
Homo sapiens, read-out: ac50 Mean.Spheroid.IBI, concentration at 50% maximal activity, Supplement 3 prints it also for curves with hit call 0
  AC50: 3550 nM
Homo sapiens, read-out: ac50 Mean.Spheroid.Nonburst.ISI, concentration at 50% maximal activity, Supplement 3 prints it also for curves with hit call 0
  AC50: 1000 nM
Homo sapiens, read-out: ac50 Mean.Spheroid.Spikes.per.Burst, concentration at 50% maximal activity, Supplement 3 prints it also for curves with hit call 0
  AC50: 3000 nM
Homo sapiens, read-out: ac50 Mean.Spheroid.Spikes.per.Burst.per.Electrode, concentration at 50% maximal activity, Supplement 3 prints it also for curves with hit call 0
  AC50: 1700 nM
Homo sapiens, read-out: ac50 Spheroid.Burst.Frequency, concentration at 50% maximal activity, Supplement 3 prints it also for curves with hit call 0
  AC50: 4200 nM
Homo sapiens, read-out: ac50 Spheroid.Spike.Amplitude.90th.Percentile, concentration at 50% maximal activity, Supplement 3 prints it also for curves with hit call 0
  AC50: 15000 nM
Metrics active out of the total number of metrics screened
  Percent active: 90%
read-out: ac50 Mean.Spheroid.Burst.Duration, concentration at 50% maximal activity, Supplement 3 prints it also for curves with hit call 0, listed as L-Domoic acid
  AC50: 3580 nM
read-out: ac50 Mean.Spheroid.Burst.ISI, concentration at 50% maximal activity, Supplement 3 prints it also for curves with hit call 0, listed as L-Domoic acid
  AC50: 4360 nM
read-out: ac50 Mean.Spheroid.Burst.Peak.Firing.Rate, concentration at 50% maximal activity, Supplement 3 prints it also for curves with hit call 0, listed as L-Domoic acid
  AC50: 3100 nM
read-out: ac50 Mean.Spheroid.Firing.Rate, concentration at 50% maximal activity, Supplement 3 prints it also for curves with hit call 0, listed as L-Domoic acid
  AC50: 5410 nM
read-out: ac50 Mean.Spheroid.Nonburst.ISI, concentration at 50% maximal activity, Supplement 3 prints it also for curves with hit call 0, listed as L-Domoic acid
  AC50: 1020 nM
read-out: ac50 Mean.Spheroid.Spikes.per.Burst.per.Electrode, concentration at 50% maximal activity, Supplement 3 prints it also for curves with hit call 0, listed as L-Domoic acid
  AC50: 1710 nM
read-out: ac50 Mean.Spheroid.Spikes.per.Burst, concentration at 50% maximal activity, Supplement 3 prints it also for curves with hit call 0, listed as L-Domoic acid
  AC50: 2980 nM
read-out: ac50 Spheroid.Burst.Frequency, concentration at 50% maximal activity, Supplement 3 prints it also for curves with hit call 0, listed as L-Domoic acid
  AC50: 4170 nM
[4]
  BMD Mean.Spheroid.Burst.Duration: 2 µM
  BMD Mean.Spheroid.Burst.Peak.Firing.Rate: 2 µM
  BMD Mean.Spheroid.Firing.Rate: 6.6 µM
  BMD Mean.Spheroid.IBI: 1.9 µM
  BMD Mean.Spheroid.Spikes.per.Burst: 1.3 µM
  BMD Mean.Spheroid.Spikes.per.Burst.per.Electrode: 1.3 µM
  BMD Spheroid.Burst.Frequency: 4.4 µM
  BMD Spheroid.Spike.Amplitude.90th.Percentile: 14 µM
[5]
  ACC Mean.Spheroid.Burst.Duration: 1.8 µM
  ACC Mean.Spheroid.Burst.ISI: 1.8 µM
  ACC Mean.Spheroid.Burst.Peak.Firing.Rate: 1.8 µM
  ACC Mean.Spheroid.Firing.Rate: 9.9 µM
  ACC Mean.Spheroid.IBI: 3.1 µM
  ACC Mean.Spheroid.Nonburst.ISI: 1 µM
  ACC Mean.Spheroid.Spikes.per.Burst: 2.8 µM
  ACC Mean.Spheroid.Spikes.per.Burst.per.Electrode: 1.5 µM
  ACC Spheroid.Burst.Frequency: 3.8 µM
  ACC Spheroid.Spike.Amplitude.90th.Percentile: 18 µM

## CN(C)C(=O)C(CCN1CCC(O)(c2ccc(Cl)cc2)CC1)(c1ccccc1)c1ccccc1 [Loperamide]
  ACC Mean.Spheroid.Burst.Duration: 0.076 µM
  ACC Mean.Spheroid.Burst.ISI: 0.019 µM
  ACC Mean.Spheroid.Burst.Peak.Firing.Rate: 0.065 µM
  ACC Mean.Spheroid.Firing.Rate: 0.036 µM
  ACC Mean.Spheroid.IBI: 0.9 µM
  ACC Mean.Spheroid.Nonburst.ISI: 0.97 µM
  ACC Mean.Spheroid.Spikes.per.Burst: 0.08 µM
  ACC Mean.Spheroid.Spikes.per.Burst.per.Electrode: 0.082 µM
  ACC Spheroid.Burst.Frequency: 0.026 µM
  ACC Spheroid.Spike.Amplitude.90th.Percentile: 6.6 µM
  BMD Mean.Spheroid.Burst.Duration: 0.087 µM
  BMD Mean.Spheroid.Burst.Peak.Firing.Rate: 0.071 µM
  BMD Mean.Spheroid.Firing.Rate: 0.025 µM
  BMD Mean.Spheroid.IBI: 0.83 µM
  BMD Mean.Spheroid.Spikes.per.Burst: 0.054 µM
  BMD Mean.Spheroid.Spikes.per.Burst.per.Electrode: 0.07 µM
  BMD Spheroid.Burst.Frequency: 0.031 µM
  BMD Spheroid.Spike.Amplitude.90th.Percentile: 2.6 µM
  Bioactivity trend over time for MFR, mean spike amplitude and burst frequency (qualitative): appeared to decrease activity
  Difference of minimum potency between BrainSphere MEA assay and rNFA: ≤ 0.5 log10 µM
  Percent active: 100%
  hitc Mean.Spheroid.Burst.Duration: 1
  hitc Mean.Spheroid.Burst.ISI: 1
  hitc Mean.Spheroid.Burst.Peak.Firing.Rate: 1
  hitc Mean.Spheroid.Firing.Rate: 1
  hitc Mean.Spheroid.IBI: 1
  hitc Mean.Spheroid.Nonburst.ISI: 1
  hitc Mean.Spheroid.Spikes.per.Burst: 1
  hitc Mean.Spheroid.Spikes.per.Burst.per.Electrode: 1
  hitc Spheroid.Burst.Frequency: 1
  hitc Spheroid.Spike.Amplitude.90th.Percentile: 1
[2]
  EC (benchmark response 1.349 SD): 0.04 µM
[3]
  EC (benchmark response 1.349 SD): 0.95 µM
Homo sapiens, read-out: ac50 Mean.Spheroid.Burst.Duration
  AC50: 140 nM
Homo sapiens, read-out: ac50 Mean.Spheroid.Burst.ISI
  AC50: 100 nM
Homo sapiens, read-out: ac50 Mean.Spheroid.Burst.Peak.Firing.Rate
  AC50: 120 nM
Homo sapiens, read-out: ac50 Mean.Spheroid.Firing.Rate
  AC50: 23 nM
Homo sapiens, read-out: ac50 Mean.Spheroid.IBI
  AC50: 910 nM
Homo sapiens, read-out: ac50 Mean.Spheroid.Nonburst.ISI
  AC50: 990 nM
Homo sapiens, read-out: ac50 Mean.Spheroid.Spikes.per.Burst
  AC50: 73 nM
Homo sapiens, read-out: ac50 Mean.Spheroid.Spikes.per.Burst.per.Electrode
  AC50: 94 nM
Homo sapiens, read-out: ac50 Spheroid.Spike.Amplitude.90th.Percentile
  AC50: 8900 nM
read-out: ac50 Mean.Spheroid.Burst.Duration
  AC50: 145 nM
read-out: ac50 Mean.Spheroid.Burst.ISI
  AC50: 103 nM
read-out: ac50 Mean.Spheroid.Burst.Peak.Firing.Rate
  AC50: 115 nM
read-out: ac50 Mean.Spheroid.Nonburst.ISI
  AC50: 989 nM
read-out: ac50 Spheroid.Spike.Amplitude.90th.Percentile
  AC50: 8930 nM
